Results published in US12492173B2, “Herbicidal substituted N-tetrazolyl aryl carboxamides” (Bayer Aktiengesellschaft, priority 2019, dated 2025).

Columns and labels:
Type in all cases: in vivo
Lolium multiflorum = assay: Pre-emergence herbicidal action, LOLMU; settings: dosage 320 g/ha, scored visually after 3 weeks vs untreated controls (100% = plants have died)
Excerpt: 1. Pre-Emergence Herbicidal Action Against Harmful Plants Seeds of monocotyledonous and dicotyledonous weed plants and crop plants are laid out in sandy loam soil in wood-fiber pots and covered with soil. The compounds of the invention, formulated in the form of wettable powders (WP) or as emulsion concentrates (EC), are then applied to the surface of the covering soil in the form of an aqueous suspension or emulsion at a water application rate equating to 600 to 800 l/ha, with addition of 0.2% wetting agent. After the treatment, the pots are placed in a greenhouse and kept under good growth conditions for the trial plants. The damage to the test plants is scored visually after a test period of 3 weeks by comparison with untreated controls (herbicidal activity in percent (%): 100% activity=the plants have died, 0% activity=like control plants). […] The tables below illustrate, in an exemplary manner, the […] herbicidal action of the compounds according to the invention, the herbicidal activity being stated in percent. [table] In the experiments that follow, herbicidal action of numerous inventive compounds and the known compounds that are structurally closest from D1 (WO 2012/028579 A1) and D2 (WO 2018/202535 A1) were compared under the above-specified conditions by the pre-emergence and post-emergence method. The example numbers given in the tables relate to the compounds disclosed in the respective documents. In addition to the compounds disclosed in D1 and D2, the following compounds V-1 to V-14 that are encompassed by D1 or D2 but are not compounds specified therein were used in the comparative experiments: • V-1: 2-(methylsulfanyl)-3-(methylsulfinyl)-N-(1-methyl-1H-tetrazol-5-yl)-4-(trifluoromethyl)benzamide • V-2: 2-(methylsulfanyl)-3-(methylsulfonyl)-N-(1-methyl-1H-tetrazol-5-yl)-4-(trifluoromethyl)benzamide • V-3: 2,3-bis(ethylsulfanyl)-N-(1-methyl-1H-tetrazol-5-yl)-4-(trifluoromethyl)benzamide • V-4: 2-chloro-3-(ethylsulfanyl)-N-(1-methyl-1H-tetrazol-5-yl)-4-(trifluoromethyl)benzamide • V-5: 2-chloro-4-iodo-3-(methylsulfanyl)-N-(1-methyl-1H-tetrazol-5-yl)benzamide • V-6: 2-chloro-4-iodo-3-(methylsulfinyl)-N-(1-methyl-1H-tetrazol-5-yl)benzamide • V-7: 2-chloro-4-iodo-3-(methylsulfonyl)-N-(1-methyl-1H-tetrazol-5-yl)benzamide • V-8: 2-bromo-3-(methylsulfanyl)-N-(1-methyl-1H-tetrazol-5-yl)-4-(trifluoromethyl)benzamide • V-9: 2-bromo-3-(methylsulfinyl)-N-(1-methyl-1H-tetrazol-5-yl)-4-(trifluoromethyl)benzamide • V-10: 2-bromo-3-(methylsulfonyl)-N-(1-methyl-1H-tetrazol-5-yl)-4-(trifluoromethyl)benzamide • V-11: 2-bromo-3-(ethylsulfanyl)-N-(1-methyl-1H-tetrazol-5-yl)-4-(trifluoromethyl)benzamide • V-12: 2-bromo-3-(ethylsulfinyl)-N-(1-methyl-1H-tetrazol-5-yl)-4-(trifluoromethyl)benzamide • V-13: 2-bromo-3-(ethylsulfonyl)-N-(1-methyl-1-1H-tetrazol-5-yl)-4-(trifluoromethyl)benzamide • V-14: 2-cyclopropyl-3-(ethylsulfanyl)-N-(1-methyl-1H-tetrazol-5-yl)-4-(trifluoromethyl)benzamide Herbicidal Pre-Emergence Action: […]

Polygonum convolvulus = assay: Pre-emergence herbicidal action, POLCO; settings: dosage 320 g/ha; for herbicidal activity POLCO: scored visually after 3 weeks vs untreated controls (100% = plants have died)
Method in brief: (§1)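 Greenhouse pre-emergence test: formulated compound (WP or EC) applied in water to the soil covering sown seeds, 600–800 l/ha, 0.2% wetting agent. Scored visually in percent at 3 weeks versus untreated plants.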

Stellaria media [1] = assay: Pre-emergence herbicidal action, STEME; design: key to Herbicidal action against STEME: % activity: 100 = plants have died, 0 = like control plants; settings: for Herbicidal action against STEME: comparative experiment; for herbicidal activity STEME: scored visually after 3 weeks vs untreated controls (100% = plants have died)
Method in brief: as §1

Cyperus esculentus = assay: Post-emergence herbicidal action, CYPES; design: key: % herbicidal action vs untreated; 100 = plants died, 0 = like control; settings: for Herbicidal action against CYPES: comparative experiment
Method in brief: (§2)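 Treatment: post-emergence spray, one-leaf stage. Medium: sandy loam, greenhouse. Carrier: 600–800 l/ha water, 0.2% wetting agent. Read-out: visual % activity at ~3 weeks, untreated plants as reference.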

Stellaria media [2] = assay: Post-emergence herbicidal action, STEME; design: key: % herbicidal action vs untreated; 100 = plants died, 0 = like control
Method in brief: as §2

Viola tricolor = assay: Post-emergence herbicidal action, VIOTR; design: key: % herbicidal action vs untreated; 100 = plants died, 0 = like control; settings: for Herbicidal action against VIOTR: comparative experiment
Method in brief: as §2

[3] = post-emergence, 20 g of a.i./ha
[4] = comparative experiment, post-emergence, 5 g of a.i./ha
[5] = comparative experiment, post-emergence, 20 g of a.i./ha

Row | SMILES | herbicidal activity LOLMU (Lolium multiflorum) [%] | herbicidal activity POLCO (Polygonum convolvulus) [%] | herbicidal activity STEME (Stellaria media [1]; dosage 320 g/ha) [%] | herbicidal action CYPES (Cyperus esculentus; post-emergence, dosage 80 g/ha) [%] | herbicidal action STEME (Stellaria media [2]; post-emergence, dosage 80 g/ha) [%] | herbicidal action VIOTR (Viola tricolor; post-emergence, dosage 80 g/ha) [%] | herbicidal action STEME (Stellaria media [2]; Dosage 80 g/ha) | herbicidal action VIOTR (Viola tricolor; Dosage 80 g/ha) | further results
1 | CC[S+]([O-])Cc1c(C(F)(F)F)ccc(C(=O)Nc2nnnn2C)c1Br (racemic) [Example 1-384] | 100 | 90 | 100 | 90 | 90 | 100 | – | – | Herbicidal action against STEME (Stellaria media [1]; 80 g of a.i./ha): 100; Herbicidal action against VIOTR (Viola tricolor; [3]): 100
2 | CSCc1c(C(F)(F)F)ccc(C(=O)Nc2nnnn2C)c1C [Example 1-83] | 100 | 100 | 100 | 90 | 100 | 90 | – | – | –
3 | CCSCc1c(C(F)(F)F)ccc(C(=O)Nc2nnnn2C)c1SCC [Example 1-182] | 90 | 100 | 90 | – | – | – | 100 | 100 | Herbicidal action against STEME (Stellaria media [1]; 20 g of a.i./ha): 90; Herbicidal action against STEME (Stellaria media [2]; [4]): 90; Herbicidal action against VIOTR (Viola tricolor; post-emergence, 5 g of a.i./ha): 90
4 | CCSCc1c(C(F)(F)F)ccc(C(=O)Nc2nnnn2C)c1Cl [Example 1-299] | 100 | 90 | 100 | 80 | 100 | 100 | – | – | Herbicidal action against STEME (Stellaria media [2]; [4]): 100
5 | Cn1nnnc1NC(=O)c1ccc(C(F)F)c(CS(C)(=O)=O)c1Cl [Example 1-322] | 100 | 100 | 100 | – | 100 | 100 | – | – | –
6 | CCSCc1c(C(F)F)ccc(C(=O)Nc2nnnn2C)c1Cl [Example 1-323] | 100 | 100 | 100 | 80 | 100 | 100 | – | – | –
7 | CCS(=O)(=O)Cc1c(C(F)F)ccc(C(=O)Nc2nnnn2C)c1Cl [Example 1-325] | 100 | 100 | 100 | – | – | – | 100 | 100 | herbicidal action CYPES (Cyperus esculentus; Dosage 80 g/ha): 80
8 | CCSCc1c(C(F)(F)F)ccc(C(=O)Nc2nnnn2C)c1Br [Example 1-383] | 100 | 100 | 100 | – | 100 | 100 | – | – | Herbicidal action against STEME (Stellaria media [2]; [5]): 100; Herbicidal action against VIOTR (Viola tricolor; [3]): 100
9 | CCS(=O)(=O)Cc1c(C(F)(F)F)ccc(C(=O)Nc2nnnn2C)c1Br [Example 1-385] | 100 | 90 | 90 | 80 | 100 | 100 | – | – | Herbicidal action against CYPES (Cyperus esculentus; [3]): 60; Herbicidal action against STEME (Stellaria media [2]; [5]): 100; Herbicidal action against VIOTR (Viola tricolor; [3]): 100
10 | COc1c(C(=O)Nc2nnnn2C)ccc(Cl)c1CSC [Example 1-570] | – | – | – | – | – | – | – | – | herbicidal action POLCO (Polygonum convolvulus): 80%; herbicidal action STEME (Stellaria media [1]; dosage 320 g/ha): 80%; Herbicidal action against CYPES (Cyperus esculentus; post-emergence, 5 g of a.i./ha): 60; Herbicidal action against STEME (Stellaria media [2]; post-emergence, dosage 80 g/ha): 80; Herbicidal action against VIOTR (Viola tricolor; post-emergence, 5 g of a.i./ha): 60
11 | CCn1nnnc1NC(=O)c1ccc(C(F)(F)F)c(CSC)c1Cl [Example 2-296] | 100 | 100 | 100 | 80 | 100 | 100 | – | – | –
12 | CCn1nnnc1NC(=O)c1ccc(C(F)(F)F)c(C[S+](C)[O-])c1Cl (stereo not drawn) [Example 2-297] | 90 | 80 | 100 | – | 100 | 100 | – | – | –
13 | CCn1nnnc1NC(=O)c1ccc(C(F)(F)F)c(CS(C)(=O)=O)c1Cl [Example 2-298] | 90 | 90 | 90 | – | – | – | 100 | 100 | –
14 | CCSCc1c(C(F)(F)F)ccc(C(=O)Nc2nnnn2CC)c1Cl [Example 2-299] | 100 | 90 | 100 | 90 | 100 | 100 | – | – | –
15 | CCn1nnnc1NC(=O)c1ccc(C(F)F)c(CSC)c1Cl [Example 2-320] | 90 | 90 | 100 | – | – | – | 100 | 100 | herbicidal action CYPES (Cyperus esculentus; Dosage 80 g/ha): 80
16 | CCn1nnnc1NC(=O)c1ccc(C(F)F)c(CS(C)(=O)=O)c1Cl [Example 2-322] | 100 | 100 | 100 | – | 100 | 100 | – | – | –
17 | CCSCc1c(C(F)F)ccc(C(=O)Nc2nnnn2CC)c1Cl [Example 2-323] | 100 | 100 | 100 | 80 | 100 | 100 | – | – | –
18 | CCn1nnnc1NC(=O)c1ccc(C(F)F)c(CS(=O)(=O)CC)c1Cl [Example 2-325] | 100 | 100 | 100 | – | – | – | 100 | 100 | –
19 | CCn1nnnc1NC(=O)c1ccc(C(F)(F)F)c(C[S+]([O-])CC)c1Br (stereo not drawn) [Example 2-384] | 100 | 90 | 100 | – | 100 | 100 | – | – | –
20 | CCCn1nnnc1NC(=O)c1ccc(C(F)(F)F)c(CS(C)(=O)=O)c1Cl [Example 3-298] | 90 | 80 | 90 | – | – | – | 100 | 100 | –
21 | CCCn1nnnc1NC(=O)c1ccc(C(F)F)c(CS(C)(=O)=O)c1Cl [Example 3-322] | 80 | 100 | 100 | – | – | – | 100 | – | –
22 | CCCn1nnnc1NC(=O)c1ccc(C(F)F)c(CSCC)c1Cl [Example 3-323] | 100 | 100 | 100 | – | – | – | 100 | 90 | –
23 | CCCn1nnnc1NC(=O)c1ccc(C(F)(F)F)c(C[S+]([O-])CC)c1Br (stereo not drawn) [Example 3-384] | 90 | 80 | 90 | – | – | – | 100 | 100 | –
